According to US20140171436A1, “TREATMENT OF ANTIFOLATE NEUROTOXICITY” (Syntrix Biosystems, Inc., priority 2003, published 2014):
“And” between values parts separate entries of the source, which are not always exact repeats. Equal entries are not always repeated.

Legend:
sigma-1 receptor = sigma-1 receptor (Homo sapiens, UniProt Q99720); conditions: cited from earlier work; for Ki: read-out: sigma-1 affinity Ki
[1] = in vivo; cited from earlier work
NMDA receptor = conditions: read-out: Ki NMDAR; cited from earlier work
sigma-2 = sigma-2 (Homo sapiens, UniProt Q5BJF2); conditions: read-out: Ki sigma-2; cited from earlier work
Chain of sigma-2 (Q5BJF2 whole entry): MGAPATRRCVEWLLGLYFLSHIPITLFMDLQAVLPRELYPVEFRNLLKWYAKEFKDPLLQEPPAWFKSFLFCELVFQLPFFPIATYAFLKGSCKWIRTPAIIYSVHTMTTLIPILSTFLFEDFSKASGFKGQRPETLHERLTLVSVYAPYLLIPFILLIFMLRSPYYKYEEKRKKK

[2] = frequent and massive doses as large as 3300 mg/day; cited from earlier work
[3] = tested on: patients with AF-NT (MTX neurotoxicity); assay: Patients with AF-NT treated with oral dextromethorphan; assay type: in vivo, human
From the text: For example, the intensity, duration and frequency of neurological symptoms such as seizure, paralysis, nystagmus, ataxia, dysarthria, aphasia cranial nerve palsy, asthenia can be readily determined by clinical evaluation. A variety of validated grading methods are available to assess such symptoms. As used herein, useful strategies for grading such objective AF-NT symptoms include time to initial response, time to resolution of all symptoms, and a grade (1-3) of the rate of symptom resolution for the majority of all AF-NT symptoms. In this grading system, a grade 1 is where symptoms resolve gradually or linearly over an extended period exceeding 96 hours, a grade 2 is where the majority of symptoms resolve in 25 to 96 hours), and a grade 3 is where the majority of symptoms resolve in 24 hours or less: the greater the grade, the greater degree of symptom improvement. Physical deficits that can be objectively assessed generally appear in patients with moderate- to high-dose exposure to antifolate.
The mean grade of symptom resolution for untreated patients was 1.4±0.2 (mean±SEM), while the mean grade of symptom resolution for treated patients was 2.3±0.2 (mean±SEM).

[4] = Example 1: NHL, 32 M, MTX 12 mg IT, oral DM 1 mg/kg once
[5] = Example 2: ALL, 15 M, MTX 12 mg IT and 100 mg/m^2 IV, oral DM 2 mg/kg × 1
[6] = Example 3: ALL, 19 M, MTX 7.5 mg IO and 1 g/m^2 IV, oral DM 1 mg/kg TID
[7] = Example 4: OS, 13 M, MTX 12 g/m^2 IV, oral DM 1 mg/kg TID
[8] = Example 4, DM 1 mg/kg three times on a single day
[9] = Example 5: OS, 16 M, MTX 12 g/m^2 IV, oral DM 1 mg/kg × 1
[10] = Example 6: ALL, 18 F, MTX 12 mg IT, oral DM 1 mg/kg BID
[11] = Example 7: ALL, 6 F, MTX 12 mg IT, oral DM 1 mg/kg BID × 3
[12] = Example 8: ALL, 9 F, MTX 12 mg IT, oral DM 1 mg/kg BID
[13] = Example 9: ALL, 14 M, IV and IT MTX, oral DM 1 mg/kg TID
[14] = Example 10: ALL, 8 F, MTX 12 mg IT, oral DM 1 mg/kg BID
[15] = Example 11: ALL, 15 F, MTX 12 mg IT, oral DM 1 mg/kg BID
[16] = Example 12: ALL, 5 M, IV and IT MTX, oral DM 1 mg/kg TID
[17] = Example 13: ALL, 13 M, MTX 12 mg IT, oral DM 1 mg/kg BID
[18] = Example 14: ALL, 14 F, MTX 12 mg IT, oral DM 1 mg/kg BID
[19] = Example 15: ALL, 13 F, MTX 12 mg IT, oral DM 1.5 mg/kg BID × 6
[20] = Example 16: ALL, 6 M, MTX 12 mg IT, oral DM 1 mg/kg BID × 5

Chain of sigma-1 receptor (Q99720 whole entry, species assumed): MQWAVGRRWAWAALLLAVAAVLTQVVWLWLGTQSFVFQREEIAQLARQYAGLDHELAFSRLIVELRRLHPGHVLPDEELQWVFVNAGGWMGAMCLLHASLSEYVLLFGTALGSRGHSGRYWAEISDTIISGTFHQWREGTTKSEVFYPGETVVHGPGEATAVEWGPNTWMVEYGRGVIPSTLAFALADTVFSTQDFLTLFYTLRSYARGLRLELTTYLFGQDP

## CC12CC3CC(C)(C1)CC(N)(C3)C2 [memantine]
sigma-1 receptor
  Ki: 2600 nM
[1]
  mean CSF/serum ratio: 0.52
NMDA receptor
  Ki: 500 nM

## COc1ccc2c(c1)[C@@]13CCCC[C@H]1[C@@H](C2)N(C)CC3 [dextromethorphan, (+)-3-methoxy-N-methylmorphinan]
sigma-2
  Ki: 4000 to 11000 nM
sigma-1 receptor; read-out: sigma-1 affinity Kd
  Kd: 20 nM
sigma-1 receptor
  Ki: 205 nM and 210 nM
[2]
  side-effects: unacceptable PCP-like side-effects
[3]; [4]
  Grade (1-3) of symptom resolution: 3 (3 = rapid (majority of symptoms resolved in 24 hours or less))
  Time to initial response: 3 h
  Time to resolution of all symptoms: 24 h
[3]; [5]
  Grade (1-3) of symptom resolution: 3 (3 = rapid (majority of symptoms resolved in 24 hours or less))
  Time to initial response: 0.50 h
  Time to resolution of all symptoms: 6 h
[3]; Example 3, text, DM 1 mg/kg three times on a single day
  duration of symptoms: 10 days
[3]; [6]
  Grade (1-3) of symptom resolution: 1 (1 = gradual (symptoms resolved gradually or linearly over an extended period exceeding 96 hours))
  Time to initial response: 3 h
  Time to resolution of all symptoms: 240 h
[3]; [7]
  Grade (1-3) of symptom resolution: 2 (2 = moderate (majority of symptoms resolved in 25 to 96 hours))
  Time to initial response: 0.75 h
  Time to resolution of all symptoms: 72 h
[3]; [8]
  duration of symptoms: 3 days
  time until symptoms began to improve: 45 min
[3]; Example 5, text, DM 1 mg/kg once
  duration of symptoms: 0.0208 days
[3]; [9]
  Grade (1-3) of symptom resolution: 3 (3 = rapid (majority of symptoms resolved in 24 hours or less))
  Time to initial response: 0.50 h
  Time to resolution of all symptoms: 0.50 h
[3]; Example 6, text, DM 1 mg/kg po BID
  persistent confusion: 8 days
[3]; [10]
  Grade (1-3) of symptom resolution: 2 (2 = moderate (majority of symptoms resolved in 25 to 96 hours))
  Time to initial response: 24 h
  Time to resolution of all symptoms: 192 h
[3]; [11]
  Grade (1-3) of symptom resolution: 3 (3 = rapid (majority of symptoms resolved in 24 hours or less))
  Time to initial response: 4 h
[3]; [12]
  Grade (1-3) of symptom resolution: 2 (2 = moderate (majority of symptoms resolved in 25 to 96 hours))
  Time to initial response: 2 h
[3]; [13]
  Grade (1-3) of symptom resolution: 3 (3 = rapid (majority of symptoms resolved in 24 hours or less))
  Time to initial response: 2 h
  Time to resolution of all symptoms: 3 h
[3]; Example 10, text, DM 1 mg/kg po BID for 24 hours
  time to complete resolution: 5 days
[3]; [14]
  Grade (1-3) of symptom resolution: 2 (2 = moderate (majority of symptoms resolved in 25 to 96 hours))
  Time to resolution of all symptoms: 120 h
[3]; Example 11, text, DM 1 mg/kg po BID
  time until back to baseline: 8 days
[3]; [15]
  Grade (1-3) of symptom resolution: 3 (3 = rapid (majority of symptoms resolved in 24 hours or less))
  Time to initial response: 24 h
  Time to resolution of all symptoms: 192 h
[3]; [16]
  Grade (1-3) of symptom resolution: 3 (3 = rapid (majority of symptoms resolved in 24 hours or less))
  Time to initial response: 24 h
  Time to resolution of all symptoms: 24 h
[3]; [17]
  Grade (1-3) of symptom resolution: 3 (3 = rapid (majority of symptoms resolved in 24 hours or less))
  Time to initial response: 24 h
  Time to resolution of all symptoms: 24 h
[3]; Example 14, text, DM 1 mg po BID by nasogastric tube
  time until able to speak: 9 days
[3]; [18]
  Grade (1-3) of symptom resolution: 1 (1 = gradual (symptoms resolved gradually or linearly over an extended period exceeding 96 hours))
  Time to initial response: 216 h
  Time to resolution of all symptoms: >1000 h
[3]; [19]
  Grade (1-3) of symptom resolution: 1 (1 = gradual (symptoms resolved gradually or linearly over an extended period exceeding 96 hours))
  Time to resolution of all symptoms: >1000 h
[3]; Example 16, text, DM 1 mg/kg po BID for 5 days
  time to complete resolution: about 5 days
[3]; [20]
  Grade (1-3) of symptom resolution: 1 (1 = gradual (symptoms resolved gradually or linearly over an extended period exceeding 96 hours)) and 2 (2 = moderate (majority of symptoms resolved in 25 to 96 hours))
  Time to initial response: 24 to 48 h and 24 h
  Time to resolution of all symptoms: 120 h
[3]; treated patients, Examples 1-16, P 0.0042 vs untreated, unpaired t test
  mean grade of symptom resolution (mean±SEM): 2.3±0.2
